≈ marks a conversion by molar mass, not a printed value. Calls of active or inactive are those of the source. The calls are words filed in the database; no cut-off is given here.
What was measured:
Cell membrane [1] = test: Disruption of cell membrane integrity in Escherichia coli ATCC 25922 assessed as increase in fluorescence intensity at 2 times to 8 times of MIC measured for 1 hrs in the presence of 12.5 ug/ml Zn2+ by SYTOX green dye based assay; assay type: subcellular; settings: DDE = dose-dependent effect
Staphylococcus aureus [2] = test: Antibacterial activity against Methicillin-resistant Staphylococcus aureus N315 assessed as inhibition of bacterial growth by measuring salt resistance incubated for 24 hrs in the presence of 12.5 ug/ml Zn2+ and 3220 ug/ml Na+ by Muller hinton broth based dilution assay; assay type: functional
Staphylococcus aureus [3] = test: Antibacterial activity against Staphylococcus aureus ATCC 29213 assessed as inhibition of bacterial growth incubated for 24 hrs in the presence of 3.125 ug/mL Zn2+ by Muller hinton broth based dilution assay; assay type: functional
Escherichia coli [4] = test: Antibacterial activity Escherichia coli ATCC 25922 assessed as inhibition of bacterial growth incubated for 24 hrs in the presence of […] ug/mL Zn2+ by Muller hinton broth based dilution assay; assay type: functional
Acinetobacter baumannii [5] = test: Antibacterial activity against Acinetobacter baumannii ATCC 17978 assessed as inhibition of bacterial growth by measuring salt resistance incubated for 24 hrs in the presence of 12.5 ug/ml Zn2+ and 175.5 ug/ml K+ by Muller hinton broth based dilution assay; assay type: functional
Acinetobacter baumannii [6] = test: Antibacterial activity against Acinetobacter baumannii ATCC 17978 assessed as inhibition of bacterial growth by measuring salt resistance incubated for 24 hrs in the presence of 12.5 ug/ml Zn2+ and 100 ug/ml […] by Muller hinton broth based dilution assay; assay type: functional
Escherichia coli [7] = test: Antibacterial activity Escherichia coli ATCC 25922 assessed as inhibition of bacterial growth incubated for 24 hrs in the presence of 0.39 ug/mL Zn2+ by Muller hinton broth based dilution assay; assay type: functional
[8] = Ratio of MIC for antibacterial activity against Acinetobacter baumannii R2889 to MIC for antibacterial activity against Acinetobacter baumannii R2889 in the presence of Zn2+; assay type: functional
Cell membrane [9] = test: Induction of outer membrane permeabilization in Escherichia coli ATCC 25922 assessed as increase in fluorescence intensity at 2 times to 8 times MIC measured for 1 hrs in the presence of 12.5 ug/ml Zn2+ by NPN uptake assay; settings: DDE = dose-dependent effect
Escherichia coli [10] = test: Antibacterial activity Escherichia coli ATCC 25922 assessed as inhibition of bacterial growth incubated for 24 hrs by Muller hinton broth based dilution assay; assay type: functional
Pseudomonas aeruginosa [11] = test: Antibacterial activity Pseudomonas aeruginosa ATCC 9027 assessed as inhibition of bacterial growth incubated for 24 hrs in the presence of 50 ug/mL Zn2+ by Muller hinton broth based dilution assay; assay type: functional
Lipopolysaccharide (LPS) = test: Displacement of BODIPY-TR-cadaverin from Pseudomonas aeruginosa Lipopolysaccharide at 4 times of MIC incubated for 30 mins in the presence of 12.5 ug/ml Zn2+ by fluorescence based microplate reader analysis relative to control
Staphylococcus aureus [12] = test: Antibacterial activity against Staphylococcus aureus ATCC 29213 assessed as inhibition of bacterial growth incubated for 24 hrs in the presence of 0.39 ug/mL Zn2+ by Muller hinton broth based dilution assay; assay type: functional
Pseudomonas aeruginosa [13] = test: Antibacterial activity Pseudomonas aeruginosa ATCC 9027 assessed as inhibition of bacterial growth incubated for 24 hrs in the presence of 3.125 ug/mL Zn2+ by Muller hinton broth based dilution assay; assay type: functional
Staphylococcus aureus [14] = test: Antibacterial activity against Staphylococcus aureus ATCC 29213 assessed as inhibition of bacterial growth incubated for 24 hrs in the presence of […] ug/mL Zn2+ by Muller hinton broth based dilution assay; assay type: functional
Escherichia coli [15] = test: Antibacterial activity Escherichia coli ATCC 25922 assessed as inhibition of bacterial growth incubated for 24 hrs in the presence of 25 ug/mL Zn2+ by Muller hinton broth based dilution assay; assay type: functional
Staphylococcus aureus [16] = test: Antibacterial activity against Staphylococcus aureus ATCC 29213 assessed as inhibition of bacterial growth incubated for 24 hrs in the presence of 0.78 ug/mL Zn2+ by Muller hinton broth based dilution assay; assay type: functional
Escherichia coli [17] = test: Antibacterial activity Escherichia coli ATCC 25922 assessed as inhibition of bacterial growth incubated for 24 hrs in the presence of 12.5 ug/mL Zn2+ by Muller hinton broth based dilution assay; assay type: functional
Staphylococcus aureus [18] = test: Antibacterial activity against Methicillin-resistant Staphylococcus aureus NCTC10442 assessed as inhibition of bacterial growth incubated for 24 hrs in the presence of 0.78 ug/mL Zn2+ by Muller hinton broth based dilution assay; assay type: functional
Staphylococcus aureus [19] = test: Antibacterial activity against Staphylococcus aureus ATCC 29213 assessed as inhibition of bacterial growth by measuring salt resistance incubated for 24 hrs in the presence of 12.5 ug/ml Zn2+ and 175.5 ug/ml K+ by Muller hinton broth based dilution assay; assay type: functional
Staphylococcus aureus [20] = test: Antibacterial activity against Methicillin-resistant Staphylococcus aureus N315 assessed as inhibition of bacterial growth by measuring salt resistance incubated for 24 hrs in the presence of 12.5 ug/ml Zn2+ and 100 ug/ml Ca2+ by Muller hinton broth based dilution assay; assay type: functional
Staphylococcus aureus [21] = test: Antibacterial activity against Staphylococcus aureus ATCC 29213 assessed as inhibition of bacterial growth incubated for 24 hrs in the presence of 25 ug/mL Zn2+ by Muller hinton broth based dilution assay; assay type: functional
Pseudomonas aeruginosa [22] = test: Antibacterial activity Pseudomonas aeruginosa ATCC 9027 assessed as inhibition of bacterial growth incubated for 24 hrs in the presence of 25 ug/mL Zn2+ by Muller hinton broth based dilution assay; assay type: functional
Pseudomonas aeruginosa [23] = test: Antibacterial activity Pseudomonas aeruginosa ATCC 9027 assessed as inhibition of bacterial growth incubated for 24 hrs in the presence of 12.5 ug/mL Zn2+ by Muller hinton broth based dilution assay; assay type: functional
Cell membrane [24] = test: Disruption of cell membrane integrity in Escherichia coli ATCC 25922 assessed as increase in red fluorescence at 8 times of MIC measured for 2 hrs in the presence of 12.5 ug/ml Zn2+ by PI and SYTO staining based assay; assay type: subcellular
Acinetobacter baumannii [25] = test: Antibacterial activity against Acinetobacter baumannii ATCC 17978 assessed as inhIbition of bacterial growth incubated for 24 hrs by Muller hinton broth based dilution assay; assay type: functional
Pseudomonas aeruginosa [26] = test: Antibacterial activity against Pseudomonas aeruginosa ATCC 9027 in C57BL/6 mouse model of bacterial keratitis assessed as log reduction in viable bacterial count in infected cornea at 0.5 % pre-infected with bacteria for 24 hrs followed by topical administration of compound four times a day for 3 days in the presence of 12.5 ug/ml of Zn2+; assay type: functional; settings: route top, time 3 day
Staphylococcus aureus [27] = test: Antibacterial activity against Methicillin-resistant Staphylococcus aureus NCTC10442 assessed as inhibition of bacterial growth by measuring salt resistance incubated for 24 hrs in the presence of 12.5 ug/ml Zn2+ and 3220 ug/ml Na+ by Muller hinton broth based dilution assay; assay type: functional
Staphylococcus aureus [28] = test: Antibacterial activity against Staphylococcus aureus ATCC 29213 assessed as log reduction in bacterial count at 4 times of MIC incubated for 1 hrs in the presence of 12.5 ug/ml Zn2+ by Muller hinton agar based time kill assay; assay type: functional

CC(C)=CCn1c2ccccc2c2c(OCC(O)CN(Cc3ccccn3)Cc3ccccn3)cccc21 (centres undefined)
Activity (Cell membrane [1]): Dde | MIC (Staphylococcus aureus [2]): 0.78 µg/mL | MIC (Staphylococcus aureus [3]): 3.12 µg/mL | MIC (Escherichia coli [4]): 6.25 µg/mL | MIC (Acinetobacter baumannii [5]): 0.78 µg/mL | MIC (Acinetobacter baumannii [6]): 3.12 µg/mL | MIC (Escherichia coli [7]): 6.25 µg/mL | Ratio [8]: 2 | Activity (Cell membrane [9]): Dde | MIC (Escherichia coli [10]): 6.25 µg/mL (≈ 12.3 µM) | MIC (Pseudomonas aeruginosa [11]): 3.12 µg/mL | Activity (Lipopolysaccharide (LPS)): 59.5% | MIC (Staphylococcus aureus [12]): 3.12 µg/mL | MIC (Pseudomonas aeruginosa [13]): 12.5 µg/mL | MIC (Staphylococcus aureus [14]): 3.12 µg/mL | MIC (Escherichia coli [15]): 1.56 µg/mL | MIC (Staphylococcus aureus [16]): 3.12 µg/mL | MIC (Escherichia coli [17]): 1.56 µg/mL | MIC (Staphylococcus aureus [18]): 1.56 µg/mL | MIC (Staphylococcus aureus [19]): 1.56 µg/mL | MIC (Staphylococcus aureus [20]): 3.12 µg/mL | MIC (Staphylococcus aureus [21]): 1.56 µg/mL | MIC (Pseudomonas aeruginosa [22]): 3.12 µg/mL | MIC (Pseudomonas aeruginosa [23]): 3.12 µg/mL | Activity (Cell membrane [24]): Active | MIC (Acinetobacter baumannii [25]): 3.12 µg/mL (≈ 6.17 µM) | log(activity) (Pseudomonas aeruginosa [26]): 4.46 | MIC (Staphylococcus aureus [27]): 1.56 µg/mL | log(activity) (Staphylococcus aureus [28]): 3.03
